In brackets after ≈: the same amount, converted by molar mass.
Assays:
[1] = system: S. pneumoniae 2950; test: MIC, clinical isolates; format: cell-based; conditions: Streptococcus pneumoniae; clinical isolate S. pneumoniae 2950; 10^6 cells/ml
[2] = system: Peptococcus magnus KY 017; test: MIC, anaerobic bacteria; format: cell-based; conditions: Finegoldia magna, KY017, Gram +, 10^6 cells/ml
From the text: (§1) | Organism (10^6 cells/ml)

[3] = system: B. fragilis 0558; test: MIC, anaerobic bacteria; format: cell-based; conditions: Bacteroides fragilis, Gram -, 10^6 cells/ml
From the text: as §1

[4] = system: B. fragilis 25285; test: MIC, anaerobic bacteria; format: cell-based; conditions: Bacteroides fragilis, Gram -, 10^6 cells/ml
From the text: as §1

[5] = system: Clostridium difficile I-E; test: MIC, anaerobic bacteria; format: cell-based; conditions: Clostridioides difficile, Gram +, 10^6 cells/ml
From the text: as §1

[6] = system: Bacteroides fragilis GM 7000; test: MIC, anaerobic bacteria; format: cell-based; conditions: GM7000, Gram -, 10^6 cells/ml
From the text: as §1

[7] = system: B. distasonis 8503; test: MIC, anaerobic bacteria; format: cell-based; conditions: Parabacteroides distasonis, Gram -, 10^6 cells/ml
From the text: as §1

[8] = system: Veillonella parvula KYA 10790; test: MIC, anaerobic bacteria; format: cell-based; conditions: KYA10790, Gram -, 10^6 cells/ml
From the text: as §1

[9] = system: Pst. micros UPI 5464-1; test: MIC, anaerobic bacteria; format: cell-based; conditions: Parvimonas micra, UPI54641, Gram +, 10^6 cells/ml
From the text: as §1

[10] = system: Fusobacterium mortiferum 4249; test: MIC, anaerobic bacteria; format: cell-based; conditions: Gram -, 10^6 cells/ml
From the text: as §1

[11] = system: B. vulgatus KYA 29327; test: MIC, anaerobic bacteria; format: cell-based; conditions: Phocaeicola vulgatus, KYA29327, Gram -, 10^6 cells/ml
From the text: as §1

[12] = system: F. nucleatum; test: MIC, anaerobic bacteria; format: cell-based; conditions: Fusobacterium nucleatum, Gram -, 10^6 cells/ml
From the text: as §1

[13] = system: S. pneumoniae 3727; test: MIC, clinical isolates; format: cell-based; conditions: Streptococcus pneumoniae; clinical isolate S. pneumoniae 3727; 10^6 cells/ml
[14] = system: S. pneumoniae 4288; test: MIC, clinical isolates; format: cell-based; conditions: Streptococcus pneumoniae; clinical isolate S. pneumoniae 4288; 10^6 cells/ml
[15] = system: S. pneumoniae 17; test: MIC, clinical isolates; format: cell-based; conditions: Streptococcus pneumoniae; clinical isolate S. pneumoniae 17; 10^6 cells/ml
[16] = system: S. pyogenes 3131; test: MIC, clinical isolates; format: cell-based; conditions: Streptococcus pyogenes; clinical isolate S. pyogenes 3131; 10^6 cells/ml
[17] = system: S. pyogenes 3102; test: MIC, clinical isolates; format: cell-based; conditions: Streptococcus pyogenes; clinical isolate S. pyogenes 3102; 10^6 cells/ml
[18] = system: S. pneumoniae IID 552; test: MIC, aerobic bacteria; format: cell-based; conditions: Streptococcus pneumoniae, IID552, Gram +, 10^6 cells/ml
[19] = system: S. pyogenes 3130; test: MIC, clinical isolates; format: cell-based; conditions: Streptococcus pyogenes; clinical isolate S. pyogenes 3130; 10^6 cells/ml
[20] = system: E. faecalis 401; test: MIC, clinical isolates; format: cell-based; conditions: Enterococcus faecalis; clinical isolate E. faecalis 401; 10^6 cells/ml
[21] = system: Pseudomonas aeruginosa V-1; test: MIC, aerobic bacteria; conditions: V1
[22] = system: S. aureus Smith; test: microbe, parasite or virus in culture; conditions: Staphylococcus aureus
[23] = system: S. marcescens GN 7577; test: MIC, aerobic bacteria; format: cell-based; conditions: Serratia marcescens, GN7577, Gram -, 10^6 cells/ml
[24] = system: P. maltophilia GIFU 2491; test: MIC, aerobic bacteria; format: cell-based; conditions: Stenotrophomonas maltophilia, GIFU2491, Gram -, 10^6 cells/ml
[25] = system: Streptococcus pyogenes (S-8); test: MIC, aerobic bacteria; format: cell-based; conditions: Gram +, 10^6 cells/ml
[26] = system: S. agalactiae 4470; test: MIC, clinical isolates; format: cell-based; conditions: Streptococcus agalactiae; clinical isolate S. agalactiae 4470; 10^6 cells/ml
[27] = system: F. necrophorum S-45; test: MIC, anaerobic bacteria; format: cell-based; conditions: Fusobacterium necrophorum, S45, Gram -, 10^6 cells/ml
[28] = system: S. pyogenes 4372; test: MIC, clinical isolates; format: cell-based; conditions: Streptococcus pyogenes; clinical isolate S. pyogenes 4372; 10^6 cells/ml
[29] = system: Salmonella enteritidis IID 604; test: microbe, parasite or virus in culture; conditions: Salmonella enterica
[30] = system: Peptostreptococcus anaerobius KYA 27337; test: MIC, anaerobic bacteria; format: cell-based; conditions: KYA27337, Gram +, 10^6 cells/ml
[31] = system: S. pyogenes 4340; test: MIC, clinical isolates; format: cell-based; conditions: Streptococcus pyogenes; clinical isolate S. pyogenes 4340; 10^6 cells/ml
[32] = system: C. perfringens KYA 13123; test: microbe, parasite or virus in culture; format: cell-based; conditions: Clostridium perfringens, KYA13123
[33] = system: Bacillus subtilis PCI 219; test: microbe, parasite or virus in culture; conditions: PCI219
[34] = system: S. pneumoniae 15; test: MIC, clinical isolates; format: cell-based; conditions: Streptococcus pneumoniae; clinical isolate S. pneumoniae 15; 10^6 cells/ml
[35] = system: Staphylococcus aureus 209 P; test: microbe, parasite or virus in culture
[36] = system: S. pyogenes 3107; test: MIC, clinical isolates; format: cell-based; conditions: Streptococcus pyogenes; clinical isolate S. pyogenes 3107; 10^6 cells/ml
[37] = system: S. agalactiae 4468; test: MIC, clinical isolates; format: cell-based; conditions: Streptococcus agalactiae; clinical isolate S. agalactiae 4468; 10^6 cells/ml
[38] = system: Shigella sonnei IID 969; test: microbe, parasite or virus in culture; conditions: IID969

O=C(O)c1cn(C2CC2)c2c(Cl)c(N3CCC(CNCCF)C3)c(F)cc2c1=O (stereo not shown) [Exp. 1, 8-Chloro-1-cyclopropyl-6-fluoro-7-[3-(2-fluoroethyl)aminomethyl-1-pyrrolidinyl]-1,4-dihydro-4-oxo-3-quinolinecarboxylic acid] was tested, and the MIC [1] was 0.025 µg/mL (≈ 0.0587 µM), the MIC [2] was ≤ 0.05 µg/mL and the MIC [3] was ≤ 0.05 µg/mL. For the same compound, the MIC [4] was ≤ 0.05 µg/mL, the MIC [5] was 0.2 µg/mL (≈ 0.47 µM) and the MIC [6] was ≤ 0.05 µg/mL. The MIC [7] was 0.2 µg/mL (≈ 0.47 µM), the MIC [8] was 0.1 µg/mL (≈ 0.235 µM) and the MIC [9] was 0.1 µg/mL (≈ 0.235 µM). For the same compound, the MIC [10] was ≤ 0.05 µg/mL, the MIC [11] was ≤ 0.05 µg/mL and the MIC [12] was ≤ 0.05 µg/mL. The MIC [13] was 0.025 µg/mL (≈ 0.0587 µM), the MIC [14] was 0.025 µg/mL (≈ 0.0587 µM) and the MIC [15] was 0.025 µg/mL (≈ 0.0587 µM). It also gave an MIC [16] of 0.025 µg/mL (≈ 0.0587 µM), an MIC [17] of 0.025 µg/mL (≈ 0.0587 µM) and an MIC [18] of 0.025 µg/mL (≈ 0.0587 µM). For the same compound, the MIC [19] was 0.025 µg/mL (≈ 0.0587 µM), the MIC [20] was 0.05 µg/mL (≈ 0.117 µM) and the MIC [21] was 0.39 µg/mL (≈ 0.916 µM). For the same compound, the MIC [22] was ≤ 0.0063 µg/mL, the MIC [23] was 1.56 µg/mL (≈ 3.66 µM) and the MIC [24] was 0.2 µg/mL (≈ 0.47 µM). For the same compound, the MIC [25] was 0.025 µg/mL (≈ 0.0587 µM), the MIC [26] was 0.025 µg/mL (≈ 0.0587 µM) and the MIC [27] was 0.1 µg/mL (≈ 0.235 µM). For the same compound, the MIC [28] was 0.025 µg/mL (≈ 0.0587 µM), the MIC [29] was 0.1 µg/mL (≈ 0.235 µM) and the MIC [30] was ≤ 0.05 µg/mL. The MIC [31] was 0.025 µg/mL (≈ 0.0587 µM), the MIC [32] was ≤ 0.05 µg/mL and the MIC [33] was ≤ 0.0063 µg/mL. The MIC [34] was 0.025 µg/mL (≈ 0.0587 µM), the MIC [35] was ≤ 0.0063 µg/mL and the MIC [36] was 0.025 µg/mL (≈ 0.0587 µM). For the same compound, the MIC [37] was 0.025 µg/mL (≈ 0.0587 µM) and the MIC [38] was 0.0125 µg/mL (≈ 0.0294 µM).
For O=C(O)c1cn(C2CC2)c2c(F)c(N3CCC(CNCCF)C3)c(F)cc2c1=O (stereo not shown) [Exp. 2, 1-Cyclopropyl-7-[3-(2-fluoroethyl)aminomethyl-1-pyrrolidinyl]-6,8-difluoro-1,4-dihydro-4-oxo-3-quinolinecarboxylic acid], the MIC [1] was 0.05 µg/mL (≈ 0.122 µM), the MIC [2] was ≤ 0.05 µg/mL and the MIC [3] was 0.39 µg/mL (≈ 0.953 µM). The MIC [4] was 0.39 µg/mL (≈ 0.953 µM), the MIC [5] was 0.78 µg/mL (≈ 1.91 µM) and the MIC [6] was 0.39 µg/mL (≈ 0.953 µM). The MIC [7] was 0.78 µg/mL (≈ 1.91 µM), the MIC [8] was 0.2 µg/mL (≈ 0.489 µM) and the MIC [9] was 0.2 µg/mL (≈ 0.489 µM). For the same compound, the MIC [10] was 0.2 µg/mL (≈ 0.489 µM), the MIC [11] was 0.39 µg/mL (≈ 0.953 µM) and the MIC [12] was 0.2 µg/mL (≈ 0.489 µM). The MIC [13] was 0.05 µg/mL (≈ 0.122 µM), the MIC [14] was 0.05 µg/mL (≈ 0.122 µM) and the MIC [15] was 0.05 µg/mL (≈ 0.122 µM). It also gave an MIC [16] of 0.05 µg/mL (≈ 0.122 µM), an MIC [17] of 0.05 µg/mL (≈ 0.122 µM) and an MIC [18] of 0.05 µg/mL (≈ 0.122 µM). It also gave an MIC [19] of 0.05 µg/mL (≈ 0.122 µM), an MIC [20] of 0.1 µg/mL (≈ 0.244 µM) and an MIC [21] of 0.39 µg/mL (≈ 0.953 µM). The MIC [22] was 0.0125 µg/mL (≈ 0.0305 µM), the MIC [23] was 1.56 µg/mL (≈ 3.81 µM) and the MIC [24] was 0.2 µg/mL (≈ 0.489 µM). For the same compound, the MIC [25] was 0.05 µg/mL (≈ 0.122 µM), the MIC [26] was 0.05 µg/mL (≈ 0.122 µM) and the MIC [27] was 0.2 µg/mL (≈ 0.489 µM). For the same compound, the MIC [28] was 0.05 µg/mL (≈ 0.122 µM), the MIC [29] was 0.1 µg/mL (≈ 0.244 µM) and the MIC [30] was ≤ 0.05 µg/mL. For the same compound, the MIC [31] was 0.05 µg/mL (≈ 0.122 µM), the MIC [32] was 0.1 µg/mL (≈ 0.244 µM) and the MIC [33] was 0.0125 µg/mL (≈ 0.0305 µM). For the same compound, the MIC [34] was 0.05 µg/mL (≈ 0.122 µM), the MIC [35] was 0.0125 µg/mL (≈ 0.0305 µM) and the MIC [36] was 0.05 µg/mL (≈ 0.122 µM). For the same compound, the MIC [37] was 0.05 µg/mL (≈ 0.122 µM) and the MIC [38] was 0.0125 µg/mL (≈ 0.0305 µM).

From patent US4791118A, “Quinolonecarboxylic acid derivatives and their preparation” (Kyorin Pharmaceutical Co., Ltd., priority 1985, dated 1988)
